Source: US20110015068A1, “Herbicidal Compositions Comprising Pyroxasulfone V” (BASF SE, priority 2008, published 2011)
Like-named read-outs stand apart in the source and are kept apart here.

Columns and labels:
Format in all cases: in vivo
Setaria lutescens = experiment: post-emergence greenhouse test, SETLU; settings: Setaria pumila, 13 g ai/ha, read-out: observed % activity
Description: (§1) For the post-emergence treatment, the test plants were first grown to a height of 3 to 20 cm, depending on the plant habit, and only then treated. Here, the herbicidal compositions were suspended or emulsified in water as distribution medium and sprayed using finely distributing nozzles.
(§2) The respective herbicides A and/or safener were formulated as 10% by weight strength suspension concentrate and introduced to the spray liquor with the amount of solvent system used for applying the active compound. Herbicide B and/or safener were used as commercially available formulations and introduced to the spray liquor with the amount of solvent system used for applying the active compound. In the examples, the solvent used was water.
(§3) The test period extended over 21 days. During this time, the plants were tended, and their response to the treatments with active compound was evaluated.
(§4) The evaluation for the damage caused by the chemical compositions was carried out using a scale from 0 to 100%, compared to the untreated control plants. Here, 0 means no damage and 100 means complete destruction of the plants.

Setaria italica [1] = experiment: pre-emergence greenhouse test, SETIT; settings: Setaria italica, 25 g ai/ha, read-out: observed % activity
Description: (§5) For the pre-emergence treatment, directly after sowing the active compounds, which had been suspended or emulsified in water, were applied by means of finely distributed nozzles. The containers were irrigated gently to promote germination and growth and subsequently covered with transparent plastic hoods until plant had rooted. This cover caused uniform germination of the tests plants, unless this was adversely affected by active compounds.
as §2, §3, §4

Polygonum convolvulus = experiment: post-emergence greenhouse test, POLCO; settings: for inhibition at 25 g/ha / inhibition at 50 g/ha / inhibition at 100 g/ha: Fallopia convolvulus, read-out: observed % activity; for inhibition at 25 g/ha: 25 g ai/ha; for inhibition at 50 g/ha: 50 g ai/ha; for inhibition at 100 g/ha: 100 g ai/ha
Description: as §1, §2, §3, §4

Galium aparine = experiment: pre-emergence greenhouse test, GALAP; settings: Galium aparine, read-out: observed % activity; for inhibition at 25 g/ha: 25 g ai/ha; for inhibition at 50 g/ha: 50 g ai/ha
Description: as §5, §2, §3, §4

Setaria italica [2] = experiment: post-emergence greenhouse test, SETIT; settings: Setaria italica, read-out: observed % activity; for inhibition at 50 g/ha: 50 g ai/ha; for inhibition at 100 g/ha: 100 g ai/ha
Description: as §1, §2, §3, §4

Ambrosia artemisifolia = experiment: pre-emergence greenhouse test, AMBEL; settings: Ambrosia, read-out: observed % activity; for inhibition at 25 g/ha: 25 g ai/ha; for inhibition at 50 g/ha: 50 g ai/ha
Description: as §5, §2, §3, §4

Chenopodium album = experiment: post-emergence greenhouse test, CHEAL; settings: for inhibition at 13 g/ha / inhibition at 50 g/ha: Chenopodium album, read-out: observed % activity; for inhibition at 13 g/ha: 13 g ai/ha; for inhibition at 50 g/ha: 50 g ai/ha
Description: as §1, §2, §3, §4

Avena fatua = experiment: post-emergence greenhouse test, AVEFA; settings: 50 g ai/ha, 20 DAT, Table 3
Description: as §1, §2, §3, §4

Compound Cn1nc(C(F)(F)F)c(CS(=O)(=O)C2=NOC(C)(C)C2)c1OC(F)F [pyroxasulfone, 3-[5-(difluoromethoxy)-1-methyl-3-(trifluoromethyl)pyrazol-4-ylmethylsulfonyl]-4,5-dihydro-5,5-dimethyl-1,2-oxazole] has an inhibition at 13 g/ha (Setaria lutescens; 192 h, 8 DAT) of 0%, an inhibition at 13 g/ha (Setaria lutescens; 480 h, 20 DAT) of 65% and an inhibition at 25 g/ha (Setaria italica [1]; 192 h, 8 DAT) of 75%. For the same compound, the inhibition at 25 g/ha (Setaria italica [1]; 480 h, 20 DAT) was 98%, the “observed activity in % destruction” value (Polygonum convolvulus; 12.5 g ai/ha, 20 DAT, Table 3) was 35% and the inhibition at 25 g/ha (Polygonum convolvulus; 192 h, 8 DAT) was 30%. It also gave an inhibition at 50 g/ha (Polygonum convolvulus; 192 h, 8 DAT) of 50%, an inhibition at 100 g/ha (Polygonum convolvulus; 192 h, 8 DAT) of 50% and an inhibition at 25 g/ha (Polygonum convolvulus; 480 h, 20 DAT) of 50%. The inhibition at 50 g/ha (Polygonum convolvulus; 480 h, 20 DAT) was 50%, the inhibition at 100 g/ha (Polygonum convolvulus; 480 h, 20 DAT) was 55% and the inhibition at 25 g/ha (Galium aparine; 192 h, 8 DAT) was 50%. The inhibition at 50 g/ha (Galium aparine; 192 h, 8 DAT) was 70%, the inhibition at 25 g/ha (Galium aparine; 480 h, 20 DAT) was 80% and the inhibition at 50 g/ha (Galium aparine; 480 h, 20 DAT) was 90%. The inhibition at 50 g/ha (Setaria italica [2]; 192 h, 8 DAT) was 25%, the inhibition at 100 g/ha (Setaria italica [2]; 192 h, 8 DAT) was 45% and the inhibition at 50 g/ha (Setaria italica [2]; 480 h, 20 DAT) was 75%. The inhibition at 100 g/ha (Setaria italica [2]; 480 h, 20 DAT) was 80%, the inhibition at 25 g/ha (Ambrosia artemisifolia; 192 h, 8 DAT) was 40% and the inhibition at 50 g/ha (Ambrosia artemisifolia; 192 h, 8 DAT) was 50%. For the same compound, the inhibition at 25 g/ha (Ambrosia artemisifolia; 480 h, 20 DAT) was 65%, the inhibition at 50 g/ha (Ambrosia artemisifolia; 480 h, 20 DAT) was 80% and the “observed activity in % destruction” value (Chenopodium album; 12.5 g ai/ha, 20 DAT, Table 3) was 35%. The “observed activity in % destruction” value (Chenopodium album; 25 g ai/ha, 20 DAT, Table 4) was 45%, the inhibition at 13 g/ha (Chenopodium album; 192 h, 8 DAT) was 35% and the inhibition at 50 g/ha (Chenopodium album; 192 h, 8 DAT) was 60%. The inhibition at 13 g/ha (Chenopodium album; 480 h, 20 DAT) was 25%, the inhibition at 50 g/ha (Chenopodium album; 480 h, 20 DAT) was 65% and the “observed activity in % destruction” value (Avena fatua) was 75%.
